Assay results from publication PMC8571713 (Experimental neurology, 2021).

Assays:
[1] = molecular target: T1, dSARM1 ARM (Drosophila SARM1 ARM domain) (Drosophila melanogaster, UniProt Q6IDD9); assay: crystal structure; format: binding
T1 sequence (Q6IDD9 315-678): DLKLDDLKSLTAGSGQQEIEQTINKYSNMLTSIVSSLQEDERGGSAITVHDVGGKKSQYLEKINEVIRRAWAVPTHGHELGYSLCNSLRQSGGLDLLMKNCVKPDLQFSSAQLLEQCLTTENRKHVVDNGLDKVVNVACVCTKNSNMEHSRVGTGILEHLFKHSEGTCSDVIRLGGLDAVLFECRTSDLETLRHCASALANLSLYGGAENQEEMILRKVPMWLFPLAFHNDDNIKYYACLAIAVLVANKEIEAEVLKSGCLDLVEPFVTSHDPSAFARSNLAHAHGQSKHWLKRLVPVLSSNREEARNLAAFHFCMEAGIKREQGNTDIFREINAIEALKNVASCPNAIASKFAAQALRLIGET

[2] = molecular target: T2, hSARM1 (human SARM1) (Homo sapiens, UniProt Q6SZW1); assay: STD NMR with NMN competition; format: biochemical
T2 sequence (Q6SZW1 28-724): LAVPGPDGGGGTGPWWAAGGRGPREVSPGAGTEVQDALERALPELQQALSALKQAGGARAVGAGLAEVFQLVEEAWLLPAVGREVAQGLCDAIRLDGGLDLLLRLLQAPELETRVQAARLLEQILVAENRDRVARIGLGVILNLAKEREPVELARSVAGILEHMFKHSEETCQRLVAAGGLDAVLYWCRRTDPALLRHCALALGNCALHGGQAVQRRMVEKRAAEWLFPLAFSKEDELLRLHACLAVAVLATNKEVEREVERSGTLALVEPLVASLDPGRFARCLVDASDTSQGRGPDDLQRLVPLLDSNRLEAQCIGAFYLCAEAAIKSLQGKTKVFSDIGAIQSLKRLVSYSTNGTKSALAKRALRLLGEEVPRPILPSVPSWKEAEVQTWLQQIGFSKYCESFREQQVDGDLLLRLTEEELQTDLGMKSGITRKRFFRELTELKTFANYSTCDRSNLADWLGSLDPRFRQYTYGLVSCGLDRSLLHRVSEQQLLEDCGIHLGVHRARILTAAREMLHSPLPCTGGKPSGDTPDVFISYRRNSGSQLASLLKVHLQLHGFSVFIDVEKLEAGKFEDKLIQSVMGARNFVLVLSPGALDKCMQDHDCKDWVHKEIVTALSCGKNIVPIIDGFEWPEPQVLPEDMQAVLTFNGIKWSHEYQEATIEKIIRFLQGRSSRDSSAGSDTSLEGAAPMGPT

`O=C([O-])c1ccc[n+]([C@@H]2O[C@H](COP(=O)(O)O)[C@@H](O)[C@H]2O)c1` [NaMN, nicotinic acid mononucleotide] was tested, and the “crystal structure (3.31 Å, soaking with 20 mM NaMN); STD NMR” value [1] was “we determined the crystal structure of the NaMN-bound ARM domain of Drosophila SARM1 (dSARM1ARM) (PDB: 7RTC” and the IC50 [2] was 93.3 µM.
